# Patent publication US20080280933A1, “BENZIMIDAZOLYL COMPOUNDS” (priority 2006, published 2008)
# Target: T1, mGluR2 receptor (metabotropic glutamate receptor 2) (Homo sapiens, UniProt Q14416)
# T1 construct: expressed in transfected cells
# Assay: mGluR2 Potentiator Screen, FLIPR, EC10-EC20 glutamate challenge
# Assay type: cell-based
# Conditions: listed as 1; read-out: EC50
# Outline: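 HEK cells stably co-expressing mGluR2 and Gα15, kept glutamine-free overnight, were loaded with Fluo-4 plus probenecid and GPT/pyruvate. Compounds (top 10 μM) were added ≥30 min before an EC10–EC20 glutamate challenge. Peak FLIPR fluorescence ratios were curve-fitted, excluding points above maximal effect, with maxima from on-plate standards.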
# T1 sequence (Q14416 19-872, species assumed): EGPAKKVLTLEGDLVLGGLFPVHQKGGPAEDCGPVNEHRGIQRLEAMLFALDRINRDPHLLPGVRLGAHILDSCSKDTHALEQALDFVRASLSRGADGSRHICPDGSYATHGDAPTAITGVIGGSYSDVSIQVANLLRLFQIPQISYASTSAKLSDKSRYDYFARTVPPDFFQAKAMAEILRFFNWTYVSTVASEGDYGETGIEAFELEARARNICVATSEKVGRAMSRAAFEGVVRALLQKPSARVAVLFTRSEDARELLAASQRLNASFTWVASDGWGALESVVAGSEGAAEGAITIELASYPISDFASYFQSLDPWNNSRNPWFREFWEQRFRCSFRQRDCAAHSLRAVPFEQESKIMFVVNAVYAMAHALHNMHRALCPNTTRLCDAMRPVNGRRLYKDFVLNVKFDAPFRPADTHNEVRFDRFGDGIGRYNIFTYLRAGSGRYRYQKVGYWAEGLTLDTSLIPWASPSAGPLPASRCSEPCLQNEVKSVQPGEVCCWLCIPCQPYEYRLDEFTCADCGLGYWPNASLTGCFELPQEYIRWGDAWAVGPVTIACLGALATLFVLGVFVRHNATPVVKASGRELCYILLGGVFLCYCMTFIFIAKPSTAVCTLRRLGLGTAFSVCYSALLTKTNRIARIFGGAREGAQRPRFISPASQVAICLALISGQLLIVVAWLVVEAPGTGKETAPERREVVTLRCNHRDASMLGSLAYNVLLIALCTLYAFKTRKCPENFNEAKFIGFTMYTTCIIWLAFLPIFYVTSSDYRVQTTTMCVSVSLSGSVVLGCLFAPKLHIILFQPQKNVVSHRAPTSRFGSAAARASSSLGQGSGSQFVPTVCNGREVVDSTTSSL
row,Molecule,EC50 [nM]
1,COc1cc(C(F)(F)F)ccc1C1CCN(Cc2nc3ccccc3n2C)CC1 [Entry 354],> 6170

# Same assay, conditions: listed as 9; read-out: EC50
row,Molecule,EC50 [nM]
1,Cc1ccc2nc(CN3CCC(c4ccccc4F)CC3)n(C)c2c1 [Entry 279],2170

# Same assay, conditions: mGluR2 potentiator screen, Table 7; read-out: EC50
row,Molecule,EC50 [nM]
1,CCCOc1ccc(Cl)cc1C1CCN(Cc2nc3ccccc3n2CF)CC1 [compound 221],413
2,Cn1c(CN2CCC(c3ccc(C(F)(F)F)cc3)CC2)nc2c(Br)cccc21 [compound 164],838
3,FCCn1c(CN2CCC(c3cc(Cl)ccc3OCC3CCC3)CC2)nc2ccccc21 [compound 195],1390
4,Cn1c(CN2CCC(c3ccc(C(F)(F)F)cc3)CC2)nc2ccccc21 [compound 166],77.8
5,FCCn1c(CN2CCC(c3cc(Cl)ccc3OCC3CCCO3)CC2)nc2ccccc21 (stereo not shown) [compound 210],1040
6,COCCn1c(CN2CCC(c3cc(Cl)ccc3OCC3CCCO3)CC2)nc2ccccc21 (stereo not shown) [compound 209],1700
7,Clc1ccc(OCC2CCCO2)c(C2CCN(Cc3nc4ccccc4n3C3CC3)CC2)c1 (stereo not shown) [compound 206],2600
8,Cn1c(CN2CCC(c3ccc(F)cc3)C2)nc2ccccc21 (stereo not shown) [compound 155],1650
9,CC1(COc2ccc(Cl)cc2C2CCN(Cc3nc4ccccc4n3CCF)CC2)COC1 [compound 212],10500
10,FCn1c(CN2CCC(c3cc(Cl)ccc3OCC3CCCO3)CC2)nc2ccccc21 (stereo not shown) [compound 208],4130
11,COCCn1c(CN2CCC(c3cc(Cl)ccc3OCC3CCC3)CC2)nc2ccccc21 [compound 196],719
12,CCCOc1ccc(Cl)cc1C1CCN(Cc2nc3ccccc3n2CCF)CC1 [compound 222],248
13,Cn1c(CN2CC[C@@H]3c4ccccc4CC[C@@H]3C2)nc2c(Br)cccc21 [compound 168],1200

# Same assay, conditions: read-out: EC50
row,Molecule,EC50 [nM]
1,CC(C)CN1CC2(CCN(Cc3nc4ccccc4n3C)CC2)c2ccccc21 [compound 106],2580
2,Cn1c(CN2CCC(c3cc(F)ccc3F)CC2)nc2ccccc21 [compound 311],16.1
3,Cn1c(CN2CCC(c3ccc(Cl)c(F)c3)CC2)nc2cccc(F)c21 [compound 453],157
4,Cn1c(CN2CCC(c3ccc(OC(F)(F)F)cc3)CC2)nc2ccccc21 [compound 340],200
5,COCn1c(CN2CCC(c3ccc(C(F)(F)F)cc3OC)CC2)nc2ccccc21 [compound 358],471
6,Cn1c(CN2CCC3(CC2)CN(C(=O)C2COc4ccccc4O2)c2ccccc23)nc2ccccc21 (stereo not shown) [compound 52],1390
7,Cc1nnsc1C(=O)N1CC2(CCN(Cc3nc4ccccc4n3C)CC2)c2cc(Cl)ccc21 [compound 25],1350
8,"2-{[Cis-4-(3,4-Difluoro-phenyl)-3-methyl-piperidin-1-yl]methyl}-1-methyl-1H-benzoimidazole [Entry 462]",1810
9,COc1ccc(Cl)cc1C1CCN(Cc2nc3ccccc3n2C2CC2)CC1 [compound 229],357
10,CCOc1ccccc1C1CCN(Cc2nc3ccccc3n2C)CC1 [compound 100],2910
11,COc1cc(C(F)(F)F)ccc1C1CCN(Cc2nc3ccccc3n2CCF)CC1 [compound 357],105
12,Cn1c(CN2CCC3(CC2)CN(C(=O)COCc2ccccc2)c2ccccc23)nc2ccccc21 [compound 58],589
13,COc1ccccc1C1CCN(Cc2nc3cc(F)c(F)cc3n2C)CC1 [compound 258],80.5
14,Cn1c(CN2CCC(c3cccc(C(F)(F)F)c3)CC2)nc2c(F)cccc21 [compound 396],123
15,2-((4-(2-Fluorophenyl)piperidin-1-yl)methyl)-1-methyl-6-phenyl-1H-benzo[d]imidazole [Entry 276],3100
16,COCCn1c(CN2CCC(c3ccc(C(F)(F)F)cc3)CC2)nc2ccccc21 [compound 246],418
17,FCn1c(CN2CCC(c3ccccc3F)CC2)nc2ccccc21 [compound 252],225
18,Cc1ccc2nc(CN3CCC(c4ccccc4F)CC3)n(C)c2c1 [Entry 279],327
19,Cn1c(CN2CCC(c3ccccc3F)CC2)nc2cccc(Br)c21 [compound 312],60.1
20,FCCn1c(CN2CCC(c3ccccc3C(F)(F)F)CC2)nc2ccccc21 [compound 243],1260
21,COCCn1c(CN2CCC(c3ccccc3OC)CC2)nc2ccccc21 [compound 248],320
22,COc1ccc(Cl)cc1C1CCN(Cc2nc3c(Br)cccc3n2C)CC1 [compound 234],1310
23,CC1=C(c2ccccc2)C(C)CN(Cc2nc3ccccc3n2C)C1 (stereo not shown) [compound 440],2850
24,COc1ccccc1[C@H]1CCN(Cc2nc3ccccc3n2CCF)C[C@H]1C (relative stereo) [compound 339],604

row,Molecule,EC50 [nM]
1,Cn1c(CN2CCC(c3ccc(C(F)(F)F)cc3F)CC2)nc2cc(Cl)ccc21 [compound 384],493
2,COc1cc(C(F)(F)F)ccc1C1CCN(Cc2nc3ccccc3n2C)CC1 [Entry 354],< 19.3
3,Cn1c(CN2CCC(c3ccc(C(F)(F)F)cc3)C(F)C2)nc2cccc(F)c21 (stereo not shown) [compound 445],137
4,Cn1c(CN2CCC3(CC2)CN(CC2CC2)c2ccc(Cl)cc23)nc2ccccc21 [compound 129],2510
5,COc1ccc(-c2cccc3nc(CN4CCC(c5ccccc5F)CC4)n(C)c23)cn1 [compound 309],112
6,CC(C)Oc1ccc(C2CCN(Cc3nc4ccccc4n3C)CC2)cc1 [compound 412],105
7,Cn1c(CN2CCC(c3ccc(C(F)(F)F)cc3)CC2)nc2c(F)cccc21 [compound 314],43.8
8,Cn1c(CN2CCC3(CC2)CN(CC2CCCO2)c2ccc(F)cc23)nc2ccccc21 (stereo not shown) [compound 117],> 9010
9,Cn1c(CN2CCC(c3ccccc3C(F)(F)F)CC2)nc2cc(F)c(F)cc21 [compound 261],2310
10,COc1cc(C(F)(F)F)ccc1C1CCN(Cc2nc3cc(Cl)ccc3n2C)CC1 [compound 383],307
11,FCn1c(CN2CCC(c3ccccc3F)CC2)nc2ccccc21 [compound 253],116
12,C[C@@H]1CN(Cc2nc3ccccc3n2C)CC[C@@H]1c1ccc(Cl)cc1Cl (relative stereo) [compound 468],86.2
13,CC(C)CCN1CC2(CCN(Cc3nc4ccccc4n3C)CC2)c2ccccc21 [compound 116],3120
14,Cn1c(CN2CCC(c3ccccc3OCC3CCCC3)CC2)nc2ccccc21 [compound 86],2310
15,COc1ccccc1C1(OC)CCN(Cc2nc3ccccc3n2CF)CC1C (stereo not shown) [compound 334],> 7080
16,Cn1c(CN2CCC(c3cc(F)cc(F)c3)CC2)nc2ccccc21 [compound 415],189
17,COc1ccccc1C1CCN(Cc2nc3ccccc3n2CCF)CC1 [compound 240],146
18,(2-((4-(2-Fluorophenyl)piperidin-1-yl)methyl)-1-methyl-1H-benzo[d]imidazol-5-yl)methanol [Entry 297],914
19,Cn1c(CN2CCC(O)(c3ccc(Cl)c(C(F)(F)F)c3)CC2)nc2ccccc21 [compound 71],4350
20,Cn1c(CN2CCC(c3ccccc3)CCC2=O)nc2ccccc21 (stereo not shown) [compound 289],> 9880
21,COc1ccc(C(F)(F)F)cc1C1CCN(Cc2nc3cc(Cl)ccc3n2C)CC1 [compound 386],> 3740
22,COCCn1c(CN2CCC(c3ccccc3F)CC2)nc2ccccc21 [compound 249],251
23,Cn1c(CN2CCC(F)(c3ccc(F)cc3)CC2)nc2cccc(F)c21 [compound 439],460
24,Cn1c(CN2CCC(c3ccc(Cl)cc3)CC2)nc2ccccc21 [compound 420],664

row,Molecule,EC50 [nM]
1,Cn1c(CN2CCC3(CC2)CN(C(=O)c2ccco2)c2ccc(Cl)cc23)nc2ccccc21 [compound 46],> 4860
2,CCCC(=O)N1CC2(CCN(Cc3nc4ccccc4n3C)CC2)c2cc(C)ccc21 [compound 38],388
3,CCN1CC2(CCN(Cc3nc4ccccc4n3C)CC2)c2cc(Cl)ccc21 [compound 105],3370
4,CCCN1CC2(CCN(Cc3nc4ccccc4n3C)CC2)c2cc(F)ccc21 [compound 137],> 7890
5,CCCCCOc1ccccc1C1CCN(Cc2nc3ccccc3n2C)CC1 [compound 93],324
6,Cc1ccc2c(c1)C1(CCN(Cc3nc4ccccc4n3C)CC1)CN2C(=O)C(C)C [compound 24],1620
7,COc1cccc2c1CCCC21CCN(Cc2nc3ccccc3n2C)CC1 [compound 69],> 6970
8,COCCn1c(CN2CC[C@H](c3ccccc3OC)[C@H](C)C2)nc2ccccc21 (relative stereo) [compound 336],2360
9,Cn1c(CN2CCC3(CC2)CN(C(=O)c2ccc(C#N)cc2)c2ccccc23)nc2ccccc21 [compound 56],1750
10,COc1ccccc1C1CCCN(Cc2nc3ccccc3n2C)CC1 (stereo not shown) [compound 304],276
11,CCOCCOc1ccccc1C1CCN(Cc2nc3ccccc3n2C)CC1 [compound 89],1750
12,Cn1c(CN2CCC(c3ccc(C(F)(F)F)cc3F)CC2)nc2cc(C#N)ccc21 [compound 391],44.4
13,Cn1c(CN2CCC(c3ccccc3OC3Cc4ccccc4C3)CC2)nc2ccccc21 [compound 102],1500
14,C[C@@H]1CN(c2cccc(C3CCN(Cc4nc5ccccc5n4C)CC3)c2)C[C@H](C)O1 [compound 83],820
15,COc1ccccc1C1CCN(Cc2nc3cc(F)c(F)cc3n2C)CC1C (stereo not shown) [compound 293],850
16,Cn1c(CN2CCC(c3ccccc3C(F)(F)F)CC2)nc2cc(Cl)ccc21 [compound 373],1750
17,Cn1c(CN2CCC(c3ccc(Cl)cc3F)CC2)nc2ccccc21 [compound 451],7.57
18,COCCn1c(CN2CCC(c3ccc(F)cc3)CC2)nc2ccccc21 [compound 367],905
19,Cn1c(CN2CCC(c3ccc(Cl)c(F)c3)CC2)nc2cc(F)ccc21 [compound 454],88.2
20,CC1CN(Cc2nc3ccccc3n2C)CC(C)C1(O)c1ccccc1 (stereo not shown) [compound 82],> 7440
21,Cn1c(CN2CCC(c3cc(F)cc(F)c3)CC2)nc2c(F)cccc21 [compound 395],328
22,Cc1ccc2c(c1)C1(CCN(Cc3nc4ccccc4n3C)CC1)CN2C(=O)c1ccco1 [compound 37],1820
